In data set [1] the test system is human epidermal keratinocytes. Briefly: Retinoid-induced keratinocyte desquamation (cell-cell detachment, trypsin/EDTA). Particulars: two days, KBM 1.5 mM calcium. The class given is cell-based. The protocol: At the end of the incubation period, the cells were exposed to a combination of trypsin and EDTA and the percentage of cells that detached from one another were assessed over time.
Human epidermal keratinocytes are isolated from the same skin biopsies as fibroblasts and grown in monolayer culture using Keratinocyte Growth Medium (KGM) as described previously (see, e.g., Varani J, et al., J Clin Invest. 1994; Varani J, et al., J. Invest. Dermatol. 94:717-723, 1990; Varani J, et al., J. Invest. Dermatol. 1989; 93:449-454). Growth is at 37° C. in a humidified atmosphere containing 5% CO2 and 95% air. For some studies, experiments use the HaCat line of immortalized human epidermal keratinocytes in place of primary or low-passage cells. Growth for these cells is exactly as with low-passage keratinocytes.
When keratinocytes are grown in monolayer culture, proliferation is optimal under low-calcium (0.05-0.15 mM) conditions. When the calcium concentration is raised to 1.5 mM, the keratinocyte differentiation occurs and proliferation slows. Under such conditions, strong cell-cell connections are made. […] The end result is that cells separate more easily from one another (see, e.g., Varani J, et al., J. Invest. Dermatol. 1989; 93:449-454; Varani J, et al., J Invest. Dermatol. 97:917-921, 1991; Varani J, et al., Am. Path. 138:887-895, 1991). Retinoid efficacy in acne is dependent, in part at least, on reduced epidermal cohesion and ability of acne lesional skin to slough during washing.
As a way to quantify detachment, keratinocytes grown for 2 days in culture medium containing 1.5 mM calcium were washed and exposed to a combination of trypsin and EDTA. Cell detachment from neighboring cells was assessed at timed intervals.

For data set [2], the system named is serum pro-inflammatory cytokines. The settings on record: mouse, in vivo. An excerpt:
Each of the 4 experimental retinoids was made up in DMSO as 0.1% and 0.3% solutions. The material was applied to the treatment area (2 cm^2 area) on a dot marked area on the inter-scapular back) once daily for 7 consecutive days or for 21 consecutive days. The test agent was gently rubbed into the test site after application. As a control, Tretinoin-0.1% was used. […] This is a commonly-prescribed anti-acne medicine. A set amount of the test article, DMSO, DMSO plus test drug, or Tretinoin cream (35 mg) was delivered using a Gilson MICROMAN fully adjustable positive placement pipette.
Serum was obtained from all mice at the end of the study and evaluated for levels of pro-inflammatory cytokines. For this, the same multiplex ELISA used with human samples was employed except that mouse-recognizing antibodies replaced antibodies used to detect the human counterparts.

In another data set the test system is rhino mouse skin. Briefly: Rhino mouse topical treatment: gross skin irritation (modified Draize scale). The class given is in vivo. Particulars: for gross skin appearance / irritation: topical daily for 21 days, photographed Day 22, ATRA as 35 mg of 0.1% cream, Examples in DMSO. The protocol:
FIGS. 10A-C: Lack of Dose-related skin irritation after 21 day topical treatment of rhino mice with 100 μL DMSO control (10A) and 100 μL DMSO containing Example 2 at 0.1 (10B) and 0.3% concentrations (10C).
FIG. 11. […] The cumulative irritation score is a modified version of the Draize irritation scale, and the animals were assessed daily by an assessor who was blinded to the treatment given each mouse.
Rhino mice (HRS\J hr^rhhr^rh)) were obtained from Jackson Laboratories. Animals were recent weanlings; at this stage in the life of the rhinomouse, the phenotype (i.e., skin with numerous horn-filled utriculi) is well expressed and continues to be for several weeks. Both males and females were included. Animals were divided into treatment groups. Once in the laboratory, the mice were kept in temperature- and humidity-controlled rooms. All procedures during the in-life portion of the study were carried out in facilities of the Unit for Laboratory Animal Medicine (ULAM) at the University of Michigan—which is an AAALAC-certified institution. All procedures were carried out with approval by the University of Michigan Institutional Animal Care and Use Committee (IACUC).
As a control, Tretinoin-0.1% was used. […] This is a commonly-prescribed anti-acne medicine.
Animals were housed individually during the treatment phase of the study. During the treatment phase, animals were assessed daily for overall health, and for signs of skin irritation. The Draize scale was used to assess skin irritation. The Draize scale evaluates the parameters of erythema and edema. Each parameter was scored between 0 and 4+ with 0 indicating no difference from control mice and 4+ indicating maximum erythema or edema. In addition, animals were assessed for dryness/flaking/cracking (single score). The overall irritation score was a compilation of the three parameters in all mice from a treatment group. During the treatment phase, animals were weighed weekly.
FIG. 1 left provides a summation of the skin irritation response in the different treatment groups. In control mice, there was little evidence of skin irritation at any time throughout the study. […] The initial spike in irritation was followed by a dip and then secondary rise. This is consistent with what is typically seen with ATRA. […] Neither the control mouse nor the Compound 1 & 2 treated mice show visible signs of irritation in the skin. In contrast, skin from the ATRA-treated mouse is red, dry and flaky. Small cracks in the skin can be seen and there is significant edema.

Results on 3 molecules are retold here after US11148998B2, “Dimethyl-nonatetraenyl-trimethyl-cyclohexyl compounds and uses thereof” (The Regents of the University of Michigan, priority 2017, dated 2021).

Consider `CC1=C(/C=C/C(C)=C/C=C/C(C)=C/C(=O)O)C(C)(C)CCC1` [ATRA, all-trans retinoic acid, reference compound], for which the “ease of cell-cell separation (percentage of cells detached over time)” value (shortened to “ease … (percentage of cells detached over time)”) in data set [1] (1.0 μg/mL) is on record as “increased the ease of cell-cell separation as compared to control”. In addition, in data set [2], the IL-1β serum level result is “low”, the IL-6 serum level is 1.55 ± 0.66 pg/mL, the KC/IL-8 serum level was 23 ± 4 pg/mL and the MCP-1 serum level is 158 ^± 43 pg/mL. In addition, in data set [2], the TNF-α serum level entry is “low”; the “serum pro-inflammatory cytokine levels compared to control mice (in words)” value is “increase in levels of MCP-1, IL-6 and KC/IL-8”. Besides, in the data set with rhino mouse skin (0.1% topical daily for 21 days), the “cumulative irritation score (modified Draize scale)” value is reported as “far more irritant”. Besides, in the data set on rhino mouse skin, the “gross skin appearance / irritation” value was “considerable skin irritation, along with excessive skin flaking”.
With `CC1=C(/C=C/C(C)=C\C=C\C(C)=C\C(=O)N(C)CC(=O)C(C)(C)C)C(C)(C)CCC1` [Example 1, (2E,4E 6Z,8E)-N-(3,3-dimethyl-2-oxobutyl)-N,3,7-trimethyl-9-(2,6,6-trimethylcyclohex-1-en-1-yl)nona-2,4,6,8-tetraenamide], in data set [1] (1.0 μg/mL), the “ease … (percentage of cells detached over time)” value is on record as “more potent than ATRA”. Besides, in data set [2], the IL-1β serum level result is on record as “low” and the TNF-α serum level result is recorded as “low”. Further, the “gross skin appearance / irritation” value in the data set on rhino mouse skin was “normal rhino mouse appearance”.
In the case of `CC1=C(/C=C/C(C)=C\C=C\C(C)=C\C(=O)N(C)CC(=O)c2ccccc2)C(C)(C)CCC1` [Example 2, (2E,4E 6Z,8E)-N,3,7-trimethyl—N-(2-oxo-2-phenylethyl)-9-(2,6,6-trimethylcyclohex-1-en-1-yl)nona-2,4,6,8-tetraenamide], the “ease … (percentage of cells detached over time)” value in data set [1] (2.5 μg/mL) was “comparable to ATRA at 1 μg/mL”. Further, in data set [2], the IL-1β serum level result is “low” and the TNF-α serum level result is listed as “low”. The “signs of serious skin irritation” value in the data set on rhino mouse skin (0.1% and 0.3% in DMSO, topical, 21 days) is recorded as “did not show any signs of serious skin irritation at either dose”. Also, the “gross skin appearance / irritation” value in the data set with rhino mouse skin is listed as “normal rhino mouse appearance”.
